In patent publication US20260200928A1, “THERAPEUTIC COMPOUNDS” (Sanofi, priority 2022, published 2026):

Biological target: T1, human IL-17A (Homo sapiens, UniProt Q16552)
T1 construct: purchased R&D Systems 7955-IL/CF
T1 sequence (Q16552 24-155): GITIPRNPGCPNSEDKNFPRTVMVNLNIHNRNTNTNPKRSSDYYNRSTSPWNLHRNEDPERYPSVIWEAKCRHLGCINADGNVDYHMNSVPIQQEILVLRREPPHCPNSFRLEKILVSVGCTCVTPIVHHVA
Assay: IL-17A AlphaLISA competition assay (block of IL-17A binding to its receptor IL-17RA)
Conditions: mean IC50 (n≥2), block of IL-17A binding to IL-17RA
How it was run: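 Bead-based AlphaLISA competition in PBS with 0.05% Tween-20 and 0.1% BSA: compound first meets human IL-17A (7.5 nM stock) for 30 min, then IL-17RA/Fc (5 nM stock) for 90 min, all at room temperature, before acceptor/donor bead capture. IC50 fitted 4-parameter, DMSO and 4 μM reference inhibitor as controls; at least duplicate.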

Molecule	IC50
Cn1nccc1C(=O)N[C@@H](COC(C)(C)C(F)(F)F)C(=O)Nc1cc(CN2C[C@@H](C(F)(F)F)NC2=O)ccn1 [Example 275, 1-methyl-N-((S)-1-oxo-1-((4-(((S)-2-oxo-4-(trifluoromethyl)imidazolidin-1-yl)methyl)pyridin-2-yl)amino)-3-((1,1,1-trifluoro-2-methylpropan-2-yl)oxy)propan-2-yl)-1H-pyrazole-5-carboxamide]	946 nM
CCc1oncc1C(=O)N[C@H](C(=O)Nc1cc(C[C@H]2C[C@@H](C(F)(F)F)NC2=O)ccn1)C1CCC(F)(F)CC1 [Example 218, N-((S)-1-(4,4-difluorocyclohexyl)-2-oxo-2-((4-(((3S,5S)-2-oxo-5-(trifluoromethyl)pyrrolidin-3-yl)methyl)pyridin-2-yl)amino)ethyl)-5-ethylisoxazole-4-carboxamide]	158 nM
COC[C@H](c1ccnc(NC(=O)[C@@H](NC(=O)c2conc2C(C)C)C2CCC(F)(F)CC2)c1)N1C[C@@H](C(F)(F)F)NC1=O [Example 197, N-((S)-1-(4,4-difluorocyclohexyl)-2-((4-((S)-2-methoxy-1-((S)-2-oxo-4-(trifluoromethyl)imidazolidin-1-yl)ethyl)pyridin-2-yl)amino)-2-oxoethyl)-3-isopropylisoxazole-4-carboxamide]	56 nM
CC(C)(C)OC(=O)N[C@H](C(=O)Nc1cc(CN2C[C@@H](C(F)(F)F)NC2=O)c(F)cn1)[C@H]1CC[C@H](C)CC1 [Example 50, tert-butyl ((S)-2-((5-fluoro-4-(((S)-2-oxo-4-(trifluoromethyl)imidazolidin-1-yl)methyl)pyridin-2-yl)amino)-1-((1r,4S)-4-methylcyclohexyl)-2-oxoethyl)carbamate]	2950 nM
COCC(c1ccnc(NC(=O)C(NC(=O)C(F)(F)c2ccc(C)cc2)C2CCC(C)CC2)c1)N1CC(C(F)(F)F)NC1=O (single isomer, unassigned) [Example 149]	108 nM
COCC(c1ccnc(NC(=O)[C@@H](NC(=O)c2ccnn2C)[C@H]2CC[C@H](C)CC2)c1)N1C[C@@H](C(F)(F)F)NC1=O (single isomer, unassigned) [Example 85]	12 nM
CC(c1ccnc(NC(=O)[C@@H](NC(=O)c2nonc2C2CC2)C2CCC(F)(F)CC2)c1)N1C[C@@H](C(F)(F)F)NC1=O (single isomer, unassigned) [Example 170, 4-cyclopropyl-N-((S)-1-(4,4-difluorocyclohexyl)-2-oxo-2-((4-((R or S)-1-((S)-2-oxo-4-(trifluoromethyl)imidazolidin-1-yl)ethyl)pyridin-2-yl)amino)ethyl)-1,2,5-oxadiazole-3-carboxamide]	21 nM
O=C(CCC(F)(F)F)NC(c1ccnc(NC(=O)[C@@H](NC(=O)c2cocn2)C2CCC(F)(F)CC2)c1)C1CC1 (stereo partly drawn) [Example 109, N-((1S)-2-((4-(cyclopropyl(4,4,4-trifluorobutanamido)methyl)pyridin-2-yl)amino)-1-(4,4-difluorocyclohexyl)-2-oxoethyl)oxazole-4-carboxamide]	7800 nM
Cc1cn([C@H](C)c2ccnc(NC(=O)[C@@H](NC(=O)c3nonc3C3CC3)C3CCC(F)(F)CC3)c2)c(=O)[nH]1 [Example 168, 4-Cyclopropyl-N—((S)-1-(4,4-difluorocyclohexyl)-2-((4-((R)-1-(4-methyl-2-oxo-2,3-dihydro-1H-imidazol-1-yl)ethyl)pyridin-2-yl)amino)-2-oxoethyl)-1,2,5-oxadiazole-3-carboxamide]	5790 nM
CC(C)c1nocc1C(=O)N[C@H](C(=O)Nc1cc(CN2C[C@@H](C(F)(F)F)NC2=O)ccn1)[C@@H](C)OC(C)(C)C [Example 130, N-((2S,3R)-3-(tert-butoxy)-1-oxo-1-((4-(((S)-2-oxo-4-(trifluoromethyl)-imidazolidin-1-yl)methyl)-pyridin-2-yl)amino)butan-2-yl)-3-isopropyl-isoxazole-4-carboxamide]	350 nM
CCn1nccc1C(=O)N[C@H](C(=O)Nc1cc([C@@H](COC)N2CC(F)(F)CNC2=O)ccn1)C1CCC(F)(F)CC1 [Example 179, N-((S)-2-((4-((S)-1-(5,5-difluoro-2-oxotetrahydropyrimidin-1(2H)-yl)-2-methoxyethyl)pyridin-2-yl)amino)-1-(4,4-difluorocyclohexyl)-2-oxoethyl)-1-ethyl-1H-pyrazole-5-carboxamide]	83 nM
4-Cyclopropyl-N—((S)-1-((1r,4S)-4-methylcyclohexyl)-2-oxo-2-((5-(((S)-2-oxo-4-(trifluoromethyl)imidazolidin-1-yl)methyl)pyridin-3-yl)amino)ethyl)-1,2,5-oxadiazole-3-carboxamide and 4-Cyclopropyl-N—((R)-1-((1r,4R)-4-methylcyclo-hexyl)-2-oxo-2-((5-(((S)-2-oxo-4-(trifluoromethyl)imidazolidin-1-yl)methyl)pyridin-3-yl)amino)ethyl)-1,2,5-oxadiazole-3-carboxamide [Example 84]	373 nM
COCC(NC(=O)CCC(F)(F)F)c1ccnc(NC(=O)[C@@H](NC(=O)OC(C)(C)C)C2CCC(F)(F)CC2)c1 (single isomer, unassigned) [Example 132]	7700 nM
CCC(c1ccnc(NC(=O)C(NC(=O)c2ccnn2CC)C2CCC(C)CC2)c1)N1CC(C(F)(F)F)NC1=O [Example 258, 1-ethyl-N-((S)-1-((1r,4S)-4-methylcyclohexyl)-2-oxo-2-((4-((R)-1-((S)-2-oxo-4-(trifluoromethyl)imidazolidin-1-yl)propyl)pyridin-2-yl)amino)ethyl)-1H-pyrazole-5-carboxamide]	9 nM
COC[C@H](c1ccnc(NC(=O)[C@@H](NC(=O)c2nocc2C(C)C)C2CCC(F)(F)CC2)c1)N1C[C@@H](C(F)(F)F)NC1=O [Example 188, N-((S)-1-(4,4-difluorocyclohexyl)-2-((4-((S)-2-methoxy-1-((S)-2-oxo-4-(trifluoromethyl)imidazolidin-1-yl)ethyl)pyridin-2-yl)amino)-2-oxoethyl)-4-isopropylisoxazole-3-carboxamide]	31 nM
COCC(c1ccnc(NC(=O)[C@@H](NC(=O)c2nccn2C)[C@H]2CC[C@H](C)CC2)c1)N1C[C@@H](C(F)(F)F)NC1=O (single isomer, unassigned) [Example 112]	381 nM
Cn1ccnc1C(=O)N[C@H](C(=O)Nc1cc(C(NC(=O)CCC(F)(F)F)C2CC2)ccn1)C1CCC(F)(F)CC1 (stereo partly drawn) [Example 111, N-((1S)-2-((4-(cyclopropyl(4,4,4-trifluorobutanamido)methyl)pyridin-2-yl)amino)-1-(4,4-difluorocyclohexyl)-2-oxoethyl)-1-methyl-1H-imidazole-2-carboxamide]	6170 nM
COCC(NC(=O)CCC(F)(F)F)c1ccnc(NC(=O)[C@@H](NC(=O)c2ccnn2C)C2CCC(F)(F)CC2)c1 (single isomer, unassigned) [Example 136]	252 nM
Cc1cnn(C)c1Cc1ccnc(NC(=O)[C@@H](NC(=O)c2ccnn2C(C)C)[C@H]2CC[C@H](C)CC2)c1 [Example 55, N—((S)-2-((4-((1,4-dimethyl-1H-pyrazol-5-yl)methyl)pyridin-2-yl)amino)-1-((1r,4S)-4-methylcyclohexyl)-2-oxoethyl)-1-isopropyl-1H-pyrazole-5-carboxamide]	183 nM
COC[C@H](c1ccnc(NC(=O)[C@@H](NC(=O)c2nonc2C)C2CCC(F)(F)CC2)c1)N1C[C@@H](C(F)(F)F)NC1=O [Example 199, N-((S)-1-(4,4-difluorocyclohexyl)-2-((4-((S)-2-methoxy-1-((S)-2-oxo-4-(trifluoromethyl)imidazolidin-1-yl)ethyl)pyridin-2-yl)amino)-2-oxoethyl)-4-methyl-1,2,5-oxadiazole-3-carboxamide]	33 nM
Cc1nonc1C(=O)N[C@H](C(=O)Nc1cc(C(C2CC2)N2C[C@@H](C(F)(F)F)NC2=O)ccn1)C1CCC(F)(F)CC1 (single isomer, unassigned) [Example 164, N-((1S)-2-((4-((R or S)-cyclopropyl((S)-2-oxo-4-(trifluoromethyl)imidazolidin-1-yl)methyl)pyridin-2-yl)amino)-1-(4,4-difluorocyclohexyl)-2-oxoethyl)-4-methyl-1,2,5-oxadiazole-3-carboxamide]	35 nM
C[C@H]1CC[C@H]([C@H](NC(=O)c2ccnn2CCC(O)C(F)(F)F)C(=O)Nc2cc(CN3C[C@@H](C(F)(F)F)NC3=O)ccn2)CC1 (single isomer, unassigned) [Example 68]	136 nM
COC[C@H](c1ccnc(NC(=O)[C@@H](NC(=O)c2ccnn2C(C)C)[C@H]2CCCC(F)(F)C2)c1)N1C[C@@H](C(F)(F)F)NC1=O (single isomer, unassigned) [Example 309]	98 nM
CCn1nccc1C(=O)N[C@H](C(=O)Nc1cc(O[C@H]2C[C@@H](C(F)(F)F)NC2=O)ccn1)[C@H]1CC[C@H](C)CC1 [Example 322, 1-ethyl-N—((S)-1-((1r,4S)-4-methylcyclohexyl)-2-oxo-2-((4-(((3S,5S)-2-oxo-5-(trifluoromethyl)pyrrolidin-3-yl)oxy)pyridin-2-yl)amino)ethyl)-1H-pyrazole-5-carboxamide]	821 nM
CC(C)(C)OC(=O)N[C@H](C(=O)Nc1cc(CN2C(=O)NC(C)(C)C2=O)ccn1)C1CCC(F)(F)CC1 [Example 27, Tert-butyl (S)-(1-(4,4-difluorocyclohexyl)-2-((4-((4,4-dimethyl-2,5-dioxoimidazolidin-1-yl)methyl)pyridin-2-yl)amino)-2-oxoethyl)carbamate]	14900 nM
O=C(N[C@H](C(=O)Nc1cc(CN2C[C@@H](C(F)(F)F)NC2=O)ccn1)C(C1CC1)C1CC1)c1nonc1C1CC1 [Example 16, 4-cyclopropyl-N-((S)-1,1-dicyclopropyl-3-oxo-3-((4-(((S)-2-oxo-4-(trifluoromethyl)imidazolidin-1-yl)methyl)pyridin-2-yl)amino)propan-2-yl)-1,2,5-oxadiazole-3-carboxamide]	157 nM
